Reference: US10000516B2 (priority 2015, dated 2018)

Biological target: T1, Human Factor D (Homo sapiens, UniProt P00746)
T1 construct: purified from human serum; purchased Complement Technology, Inc; host or cells: human serum (natural protein, not recombinant)
Assay: Human Factor D assay (Z-L-Lys-SBzl/DTNB, absorbance at 405 nm)
Format: biochemical
Conditions: Table 1; Human Factor D 80 nM, purified from human serum; substrate Z-L-Lys-SBzl; read-out: IC50
Method: Example 44. Human Factor D Assay
Human Factor D (purified from human serum, Complement Technology, Inc.) at 80 nM final concentration was incubated with test compound at various concentrations for 5 minutes at room temperature in 50 mM Tris, 1M NaCl, pH 7.5. A synthetic substrate Z-L-Lys-SBzl and DTNB (Ellman's reagent) are added to final concentrations of 100 µM each. Absorbance at 405 nm (A405) was recorded at 30 second intervals for 30 minutes using a microplate spectrophotometer. IC50 values are calculated by nonlinear regression of complement Factor D reaction rates as a function of test compound concentration.

T1 sequence (P00746 26-253): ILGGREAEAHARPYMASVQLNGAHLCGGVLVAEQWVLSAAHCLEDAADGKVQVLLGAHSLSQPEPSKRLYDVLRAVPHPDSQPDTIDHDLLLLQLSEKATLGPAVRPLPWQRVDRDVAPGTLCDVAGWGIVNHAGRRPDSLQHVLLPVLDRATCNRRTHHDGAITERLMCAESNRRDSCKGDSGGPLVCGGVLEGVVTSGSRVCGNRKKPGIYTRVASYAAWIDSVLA

Structure (SMILES) | IC50
NC(=O)c1nn(CC(=O)N2C[C@H](F)C[C@H]2C(=O)NCc2cccc(Cl)c2F)c2cc(P(=O)(O)O)ccc12 [Compound 18, 3-carbamoyl-1-(2-((2S,4R)-2-(3-chloro-2-fluorobenzylcarbamoyl)-4-fluoropyrrolidin-1-yl)-2-oxoethyl)-1H-indazol-6-ylphosphonic acid] | < 1000 nM
CC(=O)c1cn(CC(=O)N2C[C@H](F)C[C@H]2C(=O)NCc2cccc(Cl)c2F)c2cc(P(=O)(O)OCOC(=O)OC(C)C)ccc12 [Compound 22, ((3-acetyl-1-(2-((2S,4R)-2-(3-chloro-2-fluorobenzylcarbamoyl)-4-fluoropyrrolidin-1-yl)-2-oxoethyl)-1H-indol-6-yl)(hydroxy)phosphoryloxy) methyl isopropyl carbonate] | < 1000 nM
